Where two headings read alike, the source gives them in different places.
Tests used:
[1] = system: rat TRPV4 mutations (R746C, R746G, R746D, K754G, R757G, R774G, and W776G); experiment: Ca2+ imaging in HEK cells transfected with rat TRPV4 mutations; type: cell-based
Procedure: (§1) Cell culture and transfection. HEK293 cells (ATCC® CRL-1573) were cultured on poly-D-lysine coated coverslips in 24-well plate containing DMEM media with high-Glucose (Gibco, Gaithersburg, MD) supplemented with 10% fetal bovine serum (FBS, HyClone Laboratories, Logan, UT) and 100 U/mL of penicillin/streptomycin (Gibco, Gaithersburg, MD). Cell cultures were maintained with 5% of CO2 in a humidified incubator at 37° C. HEK cells were transfected with rat or human wild type or mutant TRPV4 channels with EGFP or YFP coupled to their C-termini (1.5 μg of plasmid for excised patch clamp and Ca^2+ imaging and 200 ng for single-channel experiments). The jetPEI™ Polyplus transfection reagent (Polyplus Transfection, New York, NY) for electrophysiology or Lipofectamine™ 2000 Reagent (Invitrogen, Waltham, MA) for Ca^2+ imaging were used for transfections per manufacturer's instructions as previously described (Chen et al. Pain 2014, 155, 2662-2672; Morales-Lazaro et al. Nat. Commun. 2016, 7, 13092). To investigate whether miR-146a can directly activate TRPV1 channels or indirectly via TLRs, HEK293 cells were transfected with rTRPV1 or co-transfected rTRPV1 with rTLR7, rTLR2, or rTLR6 (Addgene, Watertown, MA) for Ca^2+ imaging assay. Control cells were transfected with GFP or YFP.
Site-directed mutagenesis of TRPV4 channels. TRPV4 sequences of multiple species were aligned using Clustal Omega program. Site-directed mutagenesis to generate point mutations in rat and human TRPV4 channels were carried out using Phusion DNA polymerase enzyme (Salazar et al. Nat. Struct. Mol. Biol. 2009, 16, 704-710; Rosenbaum et al. Neuron 2002, 33, 703-713; Hsieh et al. Methods Mol. Biol. 2013, 978, 173-186), with final sequencing to check for presence of the induced mutation. We introduced the following mutations into the rTRPV4 or hTRPV4 channel: R746C, R746G, R746D, K754G, R757G, R774G, and W776G.
(§2) In vitro and ex vivo Ca^2+ imaging. […] Ratios of emissions were acquired at 0.5 Hz. ΔR/R0 was determined as the fraction of the increase of a given ratio over baseline ratio divided by baseline ratio. […]

[2] = system: human TRPV4 mutations (R746C, R746G, R746D, K754G, R757G, R774G, and W776G); experiment: Ca2+ imaging in HEK cells transfected with human TRPV4 mutations; type: cell-based
Procedure: as §1, with “To investigate whether miR-146a can directly activate TRPV1 channels or indirectly via TLRs, HEK293 cells were transfected with rTRPV1 or co-transfected rTRPV1 with rTLR7, rTLR2, or rTLR6 (Addgene, Watertown, MA) for Ca^2+ imaging assay. Control cells were transfected with GFP or YFP.” left out
as §2

**Q.** LPC 18:1 was tested. Which “Ca2+ signal induced by 10 μM LPC 18:1 in TRPV4 mutants vs rTRPV4” value [1] did it give?
**A.** drastically reduced

**Q.** And the “Ca2+ signal induced by 10 μM LPC 18:1 in TRPV4 mutants vs rTRPV4” value ([1]; listed as LPC (18:1))?
**A.** significantly reduced potency

**Q.** And the “Ca2+ signal induced by 10 μM LPC 18:1 in TRPV4 mutants vs hTRPV4” value [2]?
**A.** drastically reduced

Source: US20240002846A1, “COMPOSITIONS AND METHODS FOR THE DIAGNOSIS AND TREATMENT OF ITCH” (Duke University, priority 2020, published 2024)
